Laboratory results reported in article PMC8443589, “Modelling human liver fibrosis in the context of non-alcoholic steatohepatitis using a microphysiological system” (Communications Biology, 2021).

Key:
Assay type in all cases: cell-based, human
[1] = test system: liver MPS NASH model (PHH, KC and HSC co-cultures); assay: Cue study: secreted cytokines and chemokines (Luminex) with varying NPC number and added cues (Fig 5a, 5b)
Source text: There is only limited understanding of the pathogenic drivers of NASH and their interaction, principally due to a lack of translational models that are amenable to detailed molecular analysis[2],[34]. Here, a systems biology ‘cue-signal-analysis’ paradigm[35],[36] was utilised to produce large factorial datasets to enable the identification of molecular pathways of importance. […] To create varying set ups of the NASH microtissues we created hepatocyte microtissues in the MPS with high numbers of NPC (60,000 KC and HSC—equivalent to 10% of microtissue population) and low numbers of NPCs (6000 KC and HSC—equivalent to 1% of microtissue), representing physiological and non-physiological cell ratios respectively. Next, we took these different microtissues and cultured them in media with or without FFA. Finally, we supplemented the media with lipopolysaccharide (LPS), TGFβ, fructose or cholesterol either as single ‘cues’, in pairs or all together (Fig. 4a). ‘Cues’ were selected for clinical association with NASH. LPS, is a pleiotropic inflammatory molecule, it is proposed to reach the liver via the hepatic portal vein after release from the gastrointestinal tract, contributing to disease progression[37],[38]. TGFβ has been extensively studied in relation to fibrosis due to its regulation of genes controlling collagen and matrix-modifying enzymes. Fructose is a key substrate for de-novo lipogenesis, a process that has been identified as a key event in lipid accumulation within NAFLD patients. Finally, cholesterol accumulation has also been linked to NASH disease aetiology.
Assessment of gene expression changes was supplemented by assessment of the secretome produced by NASH microtissues in the MPS after exposure to the various cues. Increased pro-inflammatory cytokine secretion is a defining characteristic in NASH patients, so we conducted a Luminex cytokine array covering 42 different biomarkers, cytokines and chemokines secreted into the culture media of the different microtissues at multiple time points. […]

[2] = test system: liver MPS NASH model (PHH, KC and HSC co-cultures); assay: Cue study: pro-fibrotic biomarkers TIMP-1, pro-collagen 1, fibronectin (Fig 5c); conditions: fat medium + cue
Source text: Assessment of gene expression changes was supplemented by assessment of the secretome produced by NASH microtissues in the MPS after exposure to the various cues. Increased pro-inflammatory cytokine secretion is a defining characteristic in NASH patients, so we conducted a Luminex cytokine array covering 42 different biomarkers, cytokines and chemokines secreted into the culture media of the different microtissues at multiple time points. We consistently detected 27 out of the 42 biomarkers and observed that there was differential expression of cytokines and chemokines driven by the different cues applied to the micro-tissue (Fig. 5a, b). The LPS cue and the presence of higher NPC numbers were responsible for driving the largest increase in cytokine and chemokine release, with the largest increases in cytokines measured on day 14 (Fig. 5b). […] Similarly, to the cytokine production, these changes were not further enhanced by combining cues, as all the cue combinations containing TGFβ had the highest expression (Supp. Fig. 17c).
Fig. 5 Systems biology interrogation of liver MPS NASH model to determine physiologically relevant cues that promote soluble biomarker changes to mimic advanced NASH disease state. PHH, KC and HSC co-cultures were cultured in the MPS platform under a variety of conditions for 14 days to test number of NPCs, presence of fat, fructose, cholesterol, LPS and TGFβ for effects on the soluble biomarker profile of the liver MPS NASH model. Expression of biomarkers, cytokines and chemokines were compared, all concentrations were normalised by Z-transformation to allow comparison and shown relative to mean for each marker (white = not detected). a Cytokine expression compared with varying levels of NPCs; b for the high NPC group in the presence of additional cues; c Expression of pro-fibrotic biomarkers with varying NPC content and with additional varying cues in high NPC condition (additional data in Supp. Fig. 17). d Graphical summary of the changes that occur in the NASH model in the presence of Fat and Fat + TGFβ. All data were generated from a minimum of three independent replicate samples per condition.
The MPS LC12 plates consists of 12 individual bioreactors that contain pneumatically driven micro-pumps to recirculate cell culture medium through a collagen-coated scaffold. Cells were cultured using the protocol previously described[20],[21], but briefly, PHH were seeded at a density of 6 × 10^5 viable cells per well on the LC12 plates with each NPC population (KC and/or HSC) at a density of 6 × 10^4 viable cells per well. Each well contained a final volume of 1.6 mL of medium per well and maintained under a flow rate of 1.0 µL/s. Cells were seeded in Williams E medium containing primary hepatocyte thawing and plating supplements (Life Technologies, USA) and cultured initially under downward flow for 8 h before the flow was automatically reversed to upward flow for the next 16 h of culture. Microtissues were then cultured in either HEP-Lean or HEP-Fat medium, both media’s are proprietary to CN Bio Innovations Ltd. The HEP-Fat medium is a derivative of the HEP-LEAN medium and contains a mixture of saturated and unsaturated FFAs, as well as physiologically relevant quantities of insulin and sugars. Complete media changes were performed on all wells every 48–72 h. For certain experiments, the media was supplemented with additional additives from day 4 onwards: 1 ng/ml LPS (lipopolysaccharides from Escherichia coli O111:B4) (Sigma Aldrich, UK), 1 ng/ml recombinant TGF beta 1 protein (Abcam, UK); 500 µM Fructose (Sigma Aldrich, UK), 50 µg/ml Cholesterol (Sigma Aldrich, UK). […]

[3] = test system: liver MPS NASH model (PHH, KC and HSC co-cultures); assay: Cue study: albumin production (ELISA)

## CC(C)CCC[C@@H](C)[C@H]1CC[C@H]2[C@@H]3CC=C4C[C@@H](O)CC[C@]4(C)[C@H]3CC[C@]12C [Cholesterol]
[1]; Day 6, Fat media + cue
  EGF relative expression (z-transformation): -2.017
  Eotaxin relative expression (z-transformation): -0.7967
  FGF-2 relative expression (z-transformation): -0.2249
  Fit-3L relative expression (z-transformation): -1.968
  Fractalkine relative expression (z-transformation): -1.501
  G-CSF relative expression (z-transformation): -0.1828
  GM-CSF relative expression (z-transformation): -0.6958
  GRO relative expression (z-transformation): -0.8479
  IFN-a2 relative expression (z-transformation): -1.086
  IL-1RA relative expression (z-transformation): -1.579
  IL-4 relative expression (z-transformation): -1.537
  IL-6 relative expression (z-transformation): -0.8492
  IL-7 relative expression (z-transformation): -1.138
  IL-8 relative expression (z-transformation): -1.037
  IL-15 relative expression (z-transformation): -1.447
  IP-10 relative expression (z-transformation): -1.086
  MCP-1 relative expression (z-transformation): -1.585
  MCP-3 relative expression (z-transformation): -1.263
  MDC relative expression (z-transformation): -0.4545
  MIP-1a relative expression (z-transformation): -0.7293
  MIP-1b relative expression (z-transformation): -0.9104
  TNFa relative expression (z-transformation): -0.774
  VEGF relative expression (z-transformation): -0.01821
[1]; Day 11, Fat media + cue
  EGF relative expression (z-transformation): 1.504
  Eotaxin relative expression (z-transformation): -0.8044
  FGF-2 relative expression (z-transformation): 0.794
  Fractalkine relative expression (z-transformation): -1.145
  G-CSF relative expression (z-transformation): -0.8882
  GRO relative expression (z-transformation): -1.084
  IFN-a2 relative expression (z-transformation): -0.9638
  IL-1RA relative expression (z-transformation): -1.623
  IL-4 relative expression (z-transformation): -1.08
  IL-6 relative expression (z-transformation): -0.9589
  IL-7 relative expression (z-transformation): -0.957
  IL-8 relative expression (z-transformation): -1.364
  IL-15 relative expression (z-transformation): -1.997
  IP-10 relative expression (z-transformation): -1.199
  MCP-1 relative expression (z-transformation): -2.479
  MCP-3 relative expression (z-transformation): -1.098
  MDC relative expression (z-transformation): -1.98
  MIP-1a relative expression (z-transformation): -0.8147
  MIP-1b relative expression (z-transformation): -0.9274
  VEGF relative expression (z-transformation): -1.0705
[1]; Day 14, Fat media + cue
  Eotaxin relative expression (z-transformation): -0.1613
  FGF-2 relative expression (z-transformation): -0.6319
  Fractalkine relative expression (z-transformation): -0.3551
  G-CSF relative expression (z-transformation): -1.591
  GM-CSF relative expression (z-transformation): -1.001
  GRO relative expression (z-transformation): -0.8633
  IFN-a2 relative expression (z-transformation): -1.669
  IL-1RA relative expression (z-transformation): -1.544
  IL-4 relative expression (z-transformation): -1.577
  IL-6 relative expression (z-transformation): -0.7817
  IL-7 relative expression (z-transformation): -1.113
  IL-8 relative expression (z-transformation): -1.061
  IL-15 relative expression (z-transformation): -1.074
  IP-10 relative expression (z-transformation): -0.9907
  MCP-1 relative expression (z-transformation): -1.142
  MCP-3 relative expression (z-transformation): -1.036
  MDC relative expression (z-transformation): -1.936
  MIP-1a relative expression (z-transformation): -0.7839
  MIP-1b relative expression (z-transformation): -0.9403
  TNFa relative expression (z-transformation): -0.8637
  VEGF relative expression (z-transformation): 3.004
[1]; day 14
  TNFα: greatest increase
[2]; Day 6, high NPC
  Fibronectin (Fold change in cytokine production compared to control): 0.5839
  Pro-collagen 1 (Fold change in cytokine production compared to control): -0.1232
  TIMP-1 (Fold change in cytokine production compared to control): -0.5668
[2]; Day 11, high NPC
  Fibronectin (Fold change in cytokine production compared to control): 0.3927
  Pro-collagen 1 (Fold change in cytokine production compared to control): 0.4365
  TIMP-1 (Fold change in cytokine production compared to control): -0.1305
[2]; Day 14, high NPC
  Fibronectin (Fold change in cytokine production compared to control): -0.4332
  Pro-collagen 1 (Fold change in cytokine production compared to control): 0.3527
  TIMP-1 (Fold change in cytokine production compared to control): -0.3247
[3]
  Albumin production: to a lesser extent
